In US10798941B2, “Microbiocidal oxadiazole derivatives” (SYNGENTA PARTICIPATIONS AG, priority 2016, dated 2020) one finds inhibition of growth and pest or weed control data, which are given here for 21 compounds.

Some results are limits rather than exact numbers.

The subject of assay [1] is Glomerella Lagenarium (Colletotrichum Lagenarium). The assay can be described thus: Glomerella lagenarium (Colletotrichum lagenarium) liquid culture / cucumber / preventative (anthracnose). It is filed as cell-based. Conditions: Colletotrichum orbiculare; 20 ppm in the applied formulation; liquid culture in PDB, 24° C., inhibition of growth measured photometrically 3 to 4 days after application, vs untreated; read-out: disease control. A digest of the protocol: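 Conidia from cryogenic storage were mixed into potato dextrose broth. This was added to compound diluted from DMSO into 0.025% Tween20, tested at 20 ppm. Plates were incubated in the dark at 24 °C and 96% relative humidity, and growth was read photometrically after 2–7 days as % activity versus untreated check.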

Another assay has as its system Phakopsora pachyrhizi. Put plainly: Phakopsora pachyrhizi / soybean / leaf disc preventative (Asian soybean rust). It is filed as in vivo. The note with it: foliar, 288 h, 200 ppm in the applied formulation, soybean leaf disks, inoculated one day after application, assessed 12 to 14 days after application, vs untreated, read-out: disease control. Here is the method: (§1) Leaf disks or leaf segments of various plant species are cut from plants grown in a greenhouse. The cut leaf disks or segments are placed in multiwell plates (24-well format) onto water agar. The leaf disks are sprayed with a test solution before (preventative) or after (curative) inoculation. Compounds to be tested are prepared as DMSO solutions (max. 10 mg/ml) which are diluted to the appropriate concentration with 0.025% Tween20 just before spraying. The inoculated leaf disks or segments are incubated under defined conditions (temperature, relative humidity, light, etc.) according to the respective test system. A single evaluation of disease level is carried out 3 to 14 days after inoculation, depending on the pathosystem. Percent disease control relative to the untreated check leaf disks or segments is then calculated.
Soybean leaf disks are placed on water agar in multiwell plates (24-well format) and sprayed with the formulated test compound diluted in water. One day after application leaf discs are inoculated by spraying a spore suspension on the lower leaf surface. After an incubation period in a climate cabinet of 24-36 hours in darkness at 20° C. and 75% rh leaf disc are kept at 20° C. with 12 h light/day and 75% rh. The activity of a compound is assessed as percent disease control compared to untreated when an appropriate level of disease damage appears in untreated check leaf disks (12 to 14 days after application).
(§2) The following compounds at 200 ppm in the applied formulation give at least 80% disease control in this test when compared to untreated control leaf disks under the same conditions, which show extensive disease development.

The subject of assay [2] is Puccinia recondita f. Sp. Tritici. The assay can be described thus: Puccinia recondita f. sp. tritici / wheat / leaf disc curative (brown rust). It is filed as in vivo. Conditions: foliar, 144 h, 200 ppm in the applied formulation, wheat leaf segments cv. Kanzler, applied 1 day after inoculation, assessed 6 to 8 days after application, vs untreated, read-out: disease control. How it is done:
as §1
Wheat leaf segments cv. Kanzler are placed on agar in multiwell plates (24-well format). The leaf segments are then inoculated with a spore suspension of the fungus. Plates were stored in darkness at 19° C. and 75% relative humidity. The formulated test compound diluted in water was applied 1 day after inoculation. The leaf segments were incubated at 19° C. and 75% relative humidity under a light regime of 12 hours light/12 hours darkness in a climate cabinet and the activity of a compound was assessed as percent disease control compared to untreated when an appropriate level of disease damage appears in untreated check leaf segments (6 to 8 days after application).
as §2

Assay [3] has the same test system. Put plainly: Puccinia recondita f. sp. tritici / wheat / leaf disc preventative (brown rust). The format is in vivo. The note with it: foliar, 168 h, 200 ppm in the applied formulation, wheat leaf segments cv. Kanzler, preventative, inoculated 1 day after application, assessed 7 to 9 days after application, vs untreated, read-out: disease control. A digest of the protocol:
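Wheat cv. Kanzler leaf segments on agar were sprayed with formulated compound in water, then inoculated with spores 1 day later. Incubated at 19° C, 75% rh, 12 h light/12 h dark; percent disease control versus untreated scored 7 to 9 days after application.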

On to `CC(=O)c1cccn1Cc1ccc(-c2noc(C(F)(F)F)n2)cc1` [Compound 1.59, 1-[1-[[4-[5-(trifluoromethyl)-1,2,4-oxadiazol-3-yl]phenyl]methyl]pyrrol-2-yl]ethanone], for which the inhibition of growth at 20 ppm in assay [1] was at least 80%. Further, the pest or weed control at 200 ppm in the assay with Phakopsora pachyrhizi is at least 80%.

In the case of `Cc1cn(Cc2ccc(-c3noc(C(F)(F)F)n3)cc2F)cn1` [Compound 1.124, 3-[3-fluoro-4-[(4-methylimidazol-1-yl)methyl]phenyl]-5-(trifluoromethyl)-1,2,4-oxadiazole], in assay [1], the inhibition of growth at 20 ppm is at least 80%. Also, the pest or weed control at 200 ppm in assay [2] and in assay [3] was at least 80% in each case.

For the compound `Fc1cc(-c2noc(C(F)(F)F)n2)ccc1Cn1cc(Cl)cn1` [Compound 1.128, 3-[4-[(4-chloropyrazol-1-yl)methyl]-3-fluoro-phenyl]-5-(trifluoromethyl)-1,2,4-oxadiazole], the inhibition of growth at 20 ppm in assay [1] is at least 80%. Also, the pest or weed control at 200 ppm in assay [2] and in assay [3] was at least 80% throughout.

In the case of `Fc1cc(-c2noc(C(F)(F)F)n2)ccc1Cn1cc(I)cn1` [Compound 1.131, 3-[3-fluoro-4-[(4-iodopyrazol-1-yl)methyl]phenyl]-5-(trifluoromethyl)-1,2,4-oxadiazole], the inhibition of growth at 20 ppm in assay [1] is at least 80%. For the same compound, the pest or weed control at 200 ppm in assay [2] and in assay [3] was at least 80% in each case.

For the compound `Fc1cc(-c2noc(C(F)(F)F)n2)ccc1Cn1cc(Br)cn1` [Compound 1.132, 3-[4-[(4-bromopyrazol-1-yl)methyl]-3-fluoro-phenyl]-5-(trifluoromethyl)-1,2,4-oxadiazole], in assay [1], the inhibition of growth at 20 ppm was at least 80%. In addition, the pest or weed control at 200 ppm in assay [2] and in assay [3] was at least 80% in each case.

`COC(=O)c1ncn(Cc2ccc(-c3noc(C(F)(F)F)n3)cn2)c1C(=O)OC` [Compound 1.133, dimethyl 1-[[5-[5-(trifluoromethyl)-1,2,4-oxadiazol-3-yl]-2-pyridyl]methyl]imidazole-4,5-dicarboxylate]: the inhibition of growth at 20 ppm in assay [1] is at least 80%. Further, the pest or weed control at 200 ppm in assay [2] and in assay [3] was at least 80% throughout.

Consider `N#Cc1ncn(Cc2ccc(-c3noc(C(F)(F)F)n3)cn2)c1C#N` [Compound 1.135, 1-[[5-[5-(trifluoromethyl)-1,2,4-oxadiazol-3-yl]-2-pyridyl]methyl]imidazole-4,5-dicarbonitrile], for which the inhibition of growth at 20 ppm in assay [1] was at least 80%. Further, the pest or weed control at 200 ppm in assay [2] and in assay [3] was at least 80% each time.

`FC(F)(F)c1nc(-c2ccc(Cn3cnc(Cl)c3Cl)nc2)no1` [Compound 1.137, 3-[6-[(4,5-dichloroimidazol-1-yl)methyl]-3-pyridyl]-5-(trifluoromethyl)-1,2,4-oxadiazole]: the inhibition of growth at 20 ppm in assay [1] is at least 80%. In addition, the pest or weed control at 200 ppm in assay [2] and in assay [3] was at least 80% in each case.

Regarding `FC(F)(F)c1nc(-c2ccc(Cn3cc(I)cn3)nc2)no1` [Compound 1.144, 3-[6-[(4-iodopyrazol-1-yl)methyl]-3-pyridyl]-5-(trifluoromethyl)-1,2,4-oxadiazole], the inhibition of growth at 20 ppm in assay [1] is at least 80%. Also, the pest or weed control at 200 ppm in assay [2] and in assay [3] was at least 80% throughout.

Consider `FC(F)(F)c1nc(-c2ccc(Cn3nnnc3-c3ccccc3Br)cc2)no1` [Compound 1.152, 3-[4-[[5-(2-bromophenyl)tetrazol-1-yl]methyl]phenyl]-5-(trifluoromethyl)-1,2,4-oxadiazole], for which the inhibition of growth at 20 ppm in assay [1] is at least 80%. For the same compound, the pest or weed control at 200 ppm with Phakopsora pachyrhizi is at least 80%.

In the case of `FC(F)(F)c1nc(-c2ccc(Cn3nnc(-c4ccccc4Br)n3)cc2)no1` [Compound 1.153, 3-[4-[[5-(2-bromophenyl)tetrazol-2-yl]methyl]phenyl]-5-(trifluoromethyl)-1,2,4-oxadiazole], in the assay with Phakopsora pachyrhizi, the pest or weed control at 200 ppm was at least 80%.

For the compound `FC(F)(F)c1nc(-c2ccc(Cn3nnc4cc(Cl)c(Oc5ccc6c(c5)OCO6)cc43)cc2)no1` [Compound 1.177, 3-[4-[[6-(1,3-benzodioxol-5-yloxy)-5-chloro-benzotriazol-1-yl]methyl]phenyl]-5-(trifluoromethyl)-1,2,4-oxadiazole], the pest or weed control at 200 ppm in the assay on Phakopsora pachyrhizi is at least 80%.

Consider `CCOC(=O)c1ccc2c(c1)nnn2Cc1ccc(-c2noc(C(F)(F)F)n2)cc1` [Compound 1.184, ethyl 1-[[4-[5-(trifluoromethyl)-1,2,4-oxadiazol-3-yl]phenyl]methyl]benzotriazole-5-carboxylate], for which the inhibition of growth at 20 ppm in assay [1] is at least 80%. In addition, the pest or weed control at 200 ppm with Phakopsora pachyrhizi is at least 80%.

For the compound `CCOC(=O)c1ccc2nn(Cc3ccc(-c4noc(C(F)(F)F)n4)cc3)nc2c1` [Compound 1.185, ethyl 2-[[4-[5-(trifluoromethyl)-1,2,4-oxadiazol-3-yl]phenyl]methyl]benzotriazole-5-carboxylate], in assay [1], the inhibition of growth at 20 ppm was at least 80%. The pest or weed control at 200 ppm in the assay on Phakopsora pachyrhizi was at least 80%.

On to `CCOC(=O)c1cc(C2CC2)nn1Cc1ccc(-c2noc(C(F)(F)F)n2)cc1` [Compound 1.187, ethyl 5-cyclopropyl-2-[[4-[5-(trifluoromethyl)-1,2,4-oxadiazol-3-yl]phenyl]methyl]pyrazole-3-carboxylate], for which the pest or weed control at 200 ppm with Phakopsora pachyrhizi is at least 80%.

With `Cc1nc2ccc(C(F)(F)F)cc2n1Cc1ccc(-c2noc(C(F)(F)F)n2)cc1` [Compound 1.190, 3-[4-[[2-methyl-6-(trifluoromethyl)benzimidazol-1-yl]methyl]phenyl]-5-(trifluoromethyl)-1,2,4-oxadiazole], in assay [1], the inhibition of growth at 20 ppm was at least 80%. Moreover, in the assay on Phakopsora pachyrhizi, the pest or weed control at 200 ppm was at least 80%.

Turning to `FC(F)(F)c1cc(Cl)c2nnn(Cc3ccc(-c4noc(C(F)(F)F)n4)cc3)c2c1` [Compound 1.195, 3-[4-[[4-chloro-6-(trifluoromethyl)benzotriazol-1-yl]methyl]phenyl]-5-(trifluoromethyl)-1,2,4-oxadiazole], in the assay with Phakopsora pachyrhizi, the pest or weed control at 200 ppm is at least 80%.

Regarding `Cc1ccc(-c2nnnn2Cc2ccc(-c3noc(C(F)(F)F)n3)cc2)cc1` [Compound 1.201, 3-[4-[[5-(p-tolyl)tetrazol-1-yl]methyl]phenyl]-5-(trifluoromethyl)-1,2,4-oxadiazole], the pest or weed control at 200 ppm with Phakopsora pachyrhizi was at least 80%.

For `FC(F)(F)c1nc(-c2ccc(Cn3nnnc3-c3ccc(Cl)cc3)cc2)no1` [Compound 1.230, 3-[4-[[5-(4-chlorophenyl)tetrazol-1-yl]methyl]phenyl]-5-(trifluoromethyl)-1,2,4-oxadiazole], the pest or weed control at 200 ppm in the assay with Phakopsora pachyrhizi was at least 80%.

For `COc1ccc(Cc2ccc(-c3noc(C(F)(F)F)n3)cc2)cn1` [Compound 1.254, 3-[4-[(6-methoxy-3-pyridyl)methyl]phenyl]-5-(trifluoromethyl)-1,2,4-oxadiazole], the inhibition of growth at 20 ppm in assay [1] was at least 80%. The pest or weed control at 200 ppm in assay [2] and in assay [3] was at least 80% throughout.

On to `CON=C1CCN(Cc2ccc(-c3noc(C(F)(F)F)n3)cc2)C1` [Compound 1.292, N-methoxy-1-[[4-[5-(trifluoromethyl)-1,2,4-oxadiazol-3-yl]phenyl]methyl]pyrrolidin-3-imine], for which the inhibition of growth at 20 ppm in assay [1] was at least 80%. The pest or weed control at 200 ppm in assay [2] and in assay [3] was at least 80% each time.
